Structures can show the parent of a compound that is named as a salt.
tested on: Acinetobacter baumannii ATCC 17978; test: Antimicrobial susceptibility testing: 90% growth inhibitory concentration (IC90) determination; assay type: cell-based; settings: 90% growth inhibitory concentration; Acinetobacter baumannii ATCC17978; Iso-Sensitest broth, OD 600 nm over 16h; read-out: ATCC17978 IC90
Summary of the method: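 Growth of the Acinetobacter baumannii strain was followed by optical density at 600 nm every 20 minutes for 16h at 35±2° C. Inoculum was ~5×10^(5) CFU/ml in Iso-Sensitest medium, with twofold compound dilutions (e.g. 50 to 0.097 μM final). The 90% inhibitory concentration was derived in log-phase growth.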

Compound	IC90
COc1ccc(-c2cnc3c(Nc4ccc(C(=O)NCCCCCCCN)c(C)c4)nccn23)c(F)c1F [Example 516, N-(7-aminoheptyl)-4-((3-(2,3-difluoro-4-methoxyphenyl)imidazo[1,2-a]pyrazin-8-yl)amino)-2-methylbenzamide hydrochloride]	0.034 µM
COc1ccc(-c2cnc3c(Nc4ccc(C(=O)NCCC5CCOCC5)c(C)c4)nccn23)cc1F [Example 37, 4-[[3-(3-fluoro-4-methoxy-phenyl)imidazo[1,2-a]pyrazin-8-yl]amino]-2-methyl-N-(2-tetrahydropyran-4-ylethyl)benzamide; 2,2,2-trifluoroacetic acid]	0.24 µM
Cc1cc(Nc2nccn3c(-c4ccc(Cl)cc4)cnc23)ccc1C(=O)N(C)CCC1CCNCC1 [Example 88, 4-((3-(4-chlorophenyl)imidazo [1,2-a]pyrazin-8-yl)amino)-N,2-dimethyl-N-(2-(piperidin-4-yl)ethyl)benzamide hydrochloride]	0.25 µM

same assay, conditions: Acinetobacter baumannii, ATCC17978, 16 h, 90% growth inhibitory concentration; Acinetobacter baumannii ATCC17978; Iso-Sensitest broth, OD 600 nm over 16h; read-out: ATCC17978 IC90

IC90	Compound
0.11 µM	CCc1cc(Nc2nccn3c(-c4ccc(OC)c(F)c4F)cnc23)ccc1C(=O)NC[C@H]1CCNC1 [Example 530, (S)-4-((3-(2,3-difluoro-4-methoxyphenyl)imidazo[1,2-a]pyrazin-8-yl)amino)-2-ethyl-N-(pyrrolidin-3-ylmethyl)benzamide hydrochloride]
3.3 µM	Cc1cc(Nc2nccn3c(-c4ccc(OC(F)F)cc4)cnc23)ccc1C(=O)NC[C@H](C)N [Example 254, N-[(2S)-2-aminopropyl]-4-[[3-[4-(difluoromethoxy)phenyl]im-dazo[1,2-a]pyrazin-8-yl]amino]-2-methylbenzamide; hydrochlo-ride]
0.027 µM	CNC(=O)c1ccc(Nc2nccn3c(-c4ccc(OC)c(F)c4F)cnc23)cc1C [Example 538, 4-((3-(2,3-difluoro-4-methoxyphenyl)imidazo[1,2-a]pyrazin-8-yl)amino)-N,2-dimethylbenzamide]
4.6 µM	COc1ccc(-c2cnc3c(Nc4ccc(C(=O)NCCCN5CCNC(C(=O)O)C5)c(C)c4)nccn23)cc1F (stereo not drawn) [Example 2, 4-(3-(4-((3-(3-fluoro-4-methoxyphenyl)imidazo [1,2-a]pyrazin-8-yl)amino)-2-methylbenzamido)propyl) piperazine-2-carboxylic acid]
0.34 µM	COc1ccc(-c2cnc3c(Nc4ccc(C(=O)NCCCN)c(CCF)c4)nccn23)c(F)c1F [Example 392, N-(3-aminopropyl)-4-[[3-(2,3-difluoro-4-methoxy-phenyl)imidazo[1,2-a]pyrazin-8-yl]amino]-2-(2-fluoroethyl)benzamide]
0.63 µM	COc1ccc(-c2cnc3c(Nc4ccc(C(=O)N(C)CC5CCNCC5)c(C)c4)nccn23)cc1F [Example 210, 4-[[3-(3-fluoro-4-methoxyphenyl)imidazo[1,2-a]pyrazin-8-yl]amino]-N,2-dimethyl-N-(piperidin-4-ylmethyl)benzamide;hydrochlo-ride]
0.16 µM	CCc1cc(Nc2nccn3c(-c4ccc(OC(F)F)c(F)c4F)cnc23)ccc1C(=O)NCC1CCN(CC2CNC2)CC1 [Example 547, N-((1-(azetidin-3-ylmethyl)piperidin-4-yl)methyl)-4-((3-(4-(difluoromethoxy)-2,3-difluorophenyl)imidazo[1,2-a]pyrazin-8-yl)amino)-2-ethylbenzamide formate]
0.07 µM	CCc1cc(Nc2nccn3c(-c4ccc(OCC#N)c(F)c4F)cnc23)ccc1C(=O)NCCNC(=O)CCN [Example 137, N-[2-(3-aminopropanoyl-amino)ethyl]-4-[[3-[4-(cyanomethoxy)-2,3-difluoro-phenyl]imidazo[1,2-a]pyrazin-8-yl]amino]-2-ethyl-benzamide formate]
1.2 µM	CCc1cc(Nc2nccn3c(-c4ccc(OC)c(F)c4F)cnc23)ccc1C(=O)NCCNC(=O)N1CCN[C@H](C(=O)O)C1 [Example 350, (2S)-4-[2-[[4-[[3-(2,3-difluoro-4-methoxyphenyl)imidazo[1,2-a]pyrazin-8-yl]amino]-2-ethylbenzoyl]amino]ethylcar-bamoyl]piperazine-2-carboxylic acid;formic acid]

Reference: patent US20230012368A1 (Hoffmann-La Roche Inc., priority 2018, published 2023)
